Laboratory results: PMC10058905, “Bioassay-Guided Alkaloids Isolation from Camellia sinensis and Colchicum luteum: In Silico and In Vitro Evaluations for Protease Inhibition” (Molecules, 2023)

Biological target: T1, Trypsin from bovine pancreas (Bos taurus, UniProt P00760)
T1 construct: gene PRSS1
T1 sequence (P00760 24-246): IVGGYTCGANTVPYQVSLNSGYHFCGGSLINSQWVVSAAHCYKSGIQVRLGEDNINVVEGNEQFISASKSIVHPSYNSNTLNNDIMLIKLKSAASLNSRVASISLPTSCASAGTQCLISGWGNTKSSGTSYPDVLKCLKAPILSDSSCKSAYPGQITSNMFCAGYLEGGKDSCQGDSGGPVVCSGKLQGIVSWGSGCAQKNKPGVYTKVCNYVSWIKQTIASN
Test: spectrophotometric BApNA hydrolysis assay, positive control
Type: biochemical

O=S(=O)(F)Cc1ccccc1 [PMSF]
IC50: 110 ± 20 µM
